Laboratory results as given in paper PMC11671526, “β-caryophyllene sensitizes hepatocellular carcinoma cells to chemotherapeutics and inhibits cell malignancy through targeting MAPK signaling pathway” (Frontiers in Pharmacology, 2024).

Test system: HepG2 cells
Test: RNA-seq transcriptome analysis of differentially expressed genes
Type: cell-based, human
Settings: BCP vs control HepG2
Description: The quality and concentration of RNA were examined by MOPS RNA electrophoresis and Eppendorf BioSpectrometer. The transcriptome analysis was performed by BGI-Wuhan China. The RNA-seq dataset of this study is accessible in the Gene Expression Omnibus (GEO) with an access number of GSE276099. The sequence library for each sample was prepared using the BGISEQ-500 platform with a 50-bp single-end (SE50) format. […]2.2.1) was used to align the clean reads to the reference genome and alignment of the clean reads to the reference genes was carried out using Bowtie2 (v2.4.5) ([Langmead and Salzberg, 2012]; [Kim et al., 2015]). Gene expression levels were calculated by RSEM (v1.3.1) ([Li and Dewey, 2011]). Analysis of differential gene expression was performed using edgeR in the Bioconductor software package ([Robinson et al., 2010]). Using a standard protocol, the RNA samples were also examined by reverse transcription and quantitative polymerase chain reaction (RT-qPCR). In brief, for reverse transcription, total RNA (1 μg) and gDNA wiper Mix were incubated at 42°C for 2 min. The samples were immediately incubated with a master mix containing 10 pmol/μL of poly (dT) primers at 37°C for 15 min and 85°C for 5 s. To detect the expression of specific genes by qPCR analysis, gene-specific primers (shown in Supplementary Table S1) were mixed with the ChamQ Universal SYBER qPCR Master Mix and the reaction was conducted using the Roche Lightcycler 480. The GAPDH value was used to normalize the results of each gene. The RNA-seq data of BCP-treated HepG2 cells were screened for DEGs. Gene symbols were turned into Enterz ID using the org.Hs.eg.db Bio-conductor R package. The cluster profiler (v4.6.2) package was used to perform the Kyoto Encyclopedia of Genes and Genomes (KEGG) and Gene Ontology (GO) enrichment analyses ([Wu et al., 2021]). Following the Transcript per million (TPM) data of the dataset, the line chart, and heatmap were plotted using ggplot2 and pheatmap R packages, respectively.

C=C1CC/C=C(\C)CC[C@@H]2[C@@H]1CC2(C)C [BCP, β-caryophyllene]
change EGLN3 (gene EGLN3, DEG direction): Down
logFC EHF (gene EHF, RNA-seq): -2.096
change EHF (gene EHF, DEG direction): Down
logFC EPHX1 (gene EPHX1, RNA-seq): -0.6153
change EPHX1 (gene EPHX1, DEG direction): Down
logFC ETNPPL (gene ETNPPL, RNA-seq): -2.349
change ETNPPL (gene ETNPPL, DEG direction): Down
logFC EVA1A (gene EVA1A, RNA-seq): -3.085
change EVA1A (gene EVA1A, DEG direction): Down
logFC F2RL1 (gene F2RL1, RNA-seq): -0.7544
change F2RL1 (gene F2RL1, DEG direction): Down
logFC FAH (gene FAH, RNA-seq): 0.7875
change FAH (gene FAH, DEG direction): Up
logFC FAM13C (gene FAM13C, RNA-seq): 0.699
change FAM13C (gene FAM13C, DEG direction): Up
logFC FAM72C (gene FAM72C, RNA-seq): 1.971
change FAM72C (gene FAM72C, DEG direction): Up
logFC FBXO2 (gene FBXO2, RNA-seq): -0.7473
change FBXO2 (gene FBXO2, DEG direction): Down
logFC FBXO27 (gene FBXO27, RNA-seq): -1.235
change FBXO27 (gene FBXO27, DEG direction): Down
logFC FBXO44 (gene FBXO44, RNA-seq): -0.6394
change FBXO44 (gene FBXO44, DEG direction): Down
logFC FGFBP1 (gene FGFBP1, RNA-seq): -1.07
change FGFBP1 (gene FGFBP1, DEG direction): Down
logFC FRMD3 (gene FRMD3, RNA-seq): -1.073
change FRMD3 (gene FRMD3, DEG direction): Down
logFC FZD4 (gene FZD4, RNA-seq): -0.6196
change FZD4 (gene FZD4, DEG direction): Down
logFC GALNT13 (gene GALNT13, RNA-seq): 1.877
change GALNT13 (gene GALNT13, DEG direction): Up
logFC GALNTL6 (gene GALNTL6, RNA-seq): 1.303
change GALNTL6 (gene GALNTL6, DEG direction): Up
logFC GBP2 (gene GBP2, RNA-seq): -1.229
change GBP2 (gene GBP2, DEG direction): Down
logFC GIPR (gene GIPR, RNA-seq): -0.7811
change GIPR (gene GIPR, DEG direction): Down
logFC GJB5 (gene GJB5, RNA-seq): -0.706
change GJB5 (gene GJB5, DEG direction): Down
logFC GLIS3 (gene GLIS3, RNA-seq): 0.614
change GLIS3 (gene GLIS3, DEG direction): Up
logFC GNAZ (gene GNAZ, RNA-seq): -0.722
change GNAZ (gene GNAZ, DEG direction): Down
logFC GOLGA6L10 (gene GOLGA6L10, RNA-seq): 2.939
change GOLGA6L10 (gene GOLGA6L10, DEG direction): Up
logFC GPER1 (gene GPER1, RNA-seq): -0.7995
change GPER1 (gene GPER1, DEG direction): Down
logFC GPNMB (gene GPNMB, RNA-seq): 0.8482
change GPNMB (gene GPNMB, DEG direction): Up
logFC GSDME (gene GSDME, RNA-seq): 0.7468
change GSDME (gene GSDME, DEG direction): Up
logFC H1-2 (gene H1-2, RNA-seq): -0.7028
change H1-2 (gene H1-2, DEG direction): Down
logFC H2AC6 (gene H2AC6, RNA-seq): -0.6896
change H2AC6 (gene H2AC6, DEG direction): Down
logFC H2AC18 (gene H2AC18, RNA-seq): -0.6059
change H2AC18 (gene H2AC18, DEG direction): Down
logFC H2BC5 (gene H2BC5, RNA-seq): -0.8919
change H2BC5 (gene H2BC5, DEG direction): Down
logFC H2BC11 (gene H2BC11, RNA-seq): -0.8769
change H2BC11 (gene H2BC11, DEG direction): Down
logFC H2BC12 (gene H2BC12, RNA-seq): -0.7141
change H2BC12 (gene H2BC12, DEG direction): Down
logFC H2BC21 (gene H2BC21, RNA-seq): -0.7522
change H2BC21 (gene H2BC21, DEG direction): Down
logFC H3C14 (gene H3C14, RNA-seq): -8.816
change H3C14 (gene H3C14, DEG direction): Down
logFC H3C15 (gene H3C15, RNA-seq): 8.416
change H3C15 (gene H3C15, DEG direction): Up
logFC HHLA2 (gene HHLA2, RNA-seq): -1.815
change HHLA2 (gene HHLA2, DEG direction): Down
logFC HIC1 (gene HIC1, RNA-seq): -1.286
change HIC1 (gene HIC1, DEG direction): Down
logFC HID1 (gene HID1, RNA-seq): -3.326
change HID1 (gene HID1, DEG direction): Down
logFC HJURP (gene HJURP, RNA-seq): 0.601
change HJURP (gene HJURP, DEG direction): Up
logFC HK1 (gene HK1, RNA-seq): -0.5879
change HK1 (gene HK1, DEG direction): Down
logFC HMG20B (gene HMG20B, RNA-seq): 0.778
change HMG20B (gene HMG20B, DEG direction): Up
logFC HMMR (gene HMMR, RNA-seq): 0.8153
change HMMR (gene HMMR, DEG direction): Up
logFC HPDL (gene HPDL, RNA-seq): -0.6564
change HPDL (gene HPDL, DEG direction): Down
logFC HSPA5 (gene HSPA5, RNA-seq): 0.6968
change HSPA5 (gene HSPA5, DEG direction): Up
logFC IFI35 (gene IFI35, RNA-seq): 0.5837
change IFI35 (gene IFI35, DEG direction): Up
logFC IFITM1 (gene IFITM1, RNA-seq): -1.457
change IFITM1 (gene IFITM1, DEG direction): Down
logFC IL34 (gene IL34, RNA-seq): -0.7177
change IL34 (gene IL34, DEG direction): Down
logFC IQGAP3 (gene IQGAP3, RNA-seq): 0.8425
change IQGAP3 (gene IQGAP3, DEG direction): Up
logFC ITPR1 (gene ITPR1, RNA-seq): 0.8272
change ITPR1 (gene ITPR1, DEG direction): Up
logFC KCNH3 (gene KCNH3, RNA-seq): -0.6893
change KCNH3 (gene KCNH3, DEG direction): Down
logFC KCNJ18 (gene KCNJ18, RNA-seq): 0.8616
change KCNJ18 (gene KCNJ18, DEG direction): Up
logFC KCNK3 (gene KCNK3, RNA-seq): -0.6699
change KCNK3 (gene KCNK3, DEG direction): Down
logFC KIAA1614 (gene KIAA1614, RNA-seq): 0.6603
change KIAA1614 (gene KIAA1614, DEG direction): Up
logFC KLHDC7B (gene KLHDC7B, RNA-seq): 0.8443
change KLHDC7B (gene KLHDC7B, DEG direction): Up
logFC KLRG1 (gene KLRG1, RNA-seq): -1.335
change KLRG1 (gene KLRG1, DEG direction): Down
logFC LCK (gene LCK, RNA-seq): -3.081
change LCK (gene LCK, DEG direction): Down
logFC LFNG (gene LFNG, RNA-seq): -0.7084
change LFNG (gene LFNG, DEG direction): Down
logFC LHFPL2 (gene LHFPL2, RNA-seq): -0.5801
change LHFPL2 (gene LHFPL2, DEG direction): Down
logFC LIMS3 (gene LIMS3, RNA-seq): 8.319
change LIMS3 (gene LIMS3, DEG direction): Up
